# Several values for one entry are separate records, joined by “and”; a condition that tells them apart may be missing. Identical values can stand only once. Entries after “also recorded” stand apart in the source; their conditions may differ.
# Experiments:
# Type in all cases: in vivo, mouse
# CFTR−/− mice [1] = test: Fatty acid levels (GC/MS) in pancreas and lung cells of CFTR−/− mice fed n-3 fatty acids; conditions: for AA level in pancreas: CFTR-/- mice, 40 mg/day for one week (fish oil: dose equivalent to 40 mg DHA, 60 mg EPA, 15 mg LNA), mean ± S.D.
# wild-type mice = test: Fatty acid levels (GC/MS) in pancreas and lung cells of wild-type mice fed n-3 fatty acids; conditions: for Change in phospholipid/membrane-bound AA (in words) / Change in phospholipid/membrane-bound DHA (in words): 40 mg/day for one week
# Procedure: (§1) Mouse pancreatic acinar and lung cell suspensions were prepared from wild type (n=3) and CFTR−/− mice (n=3) by enzymatic and mechanical dissociation. In addition, brain, kidney, heart, spleen, and blood were sonicated in 0.3M sucrose buffer. Membrane lipids were extracted from cell and organ preparations with 20 volumes of chloroform-methanol 2:1 (v/v), transmethylated with 0.5 mL of 0.1 N methanolic-NaOH/BF3 reagent, and the resulting fatty acid methyl esters analyzed by gas chromatography/mass spectrometry (GC/MS). In a different set of experiments, lipids were fractionated by aminopropyl column chromatography into triglycerides, cholesterol esters, and phosphoglycerides and the fatty acid composition of each lipid class determined by a combination of enzymatic hydrolysis, transmethylation, and GC/MS.
# Cystic fibrosis (UNC strain) and wild type mice (12-20 grams body weight) were fed with a complete liquid enteral formulation (Peptamen™, Nestle Clinical Nutrition, […], Springville, Utah). DHA content in the Neuromins formulation was 100 mg per 500 mg of formulation. […]
# […] The pellets (0.5 mL for pancreas cell homogenate and 0.6 mL for lung cell homogenate) were extracted with 3 mL of chloroform-methanol 2:1 (v/v). The resulting emulsion was vortexed, centrifuged at 800 g for 3 min., and the lower phase aspirated. The residual upper phase was partitioned again with 3 mL of chloroform-methanol 2:1 (v/v), the lower phase aspirated and both lower phases combined. Fractions were evaporated to dryness, processed for FAME and analyzed by GC-MS. Aliquots of 20 μL of 17:0 in chloroform-methanol 2:1 (v/v) were added to the samples before methylation.
# CFTR−/− mice were prepared as described in Example 1. Both CFTR−/− mice and wild type mice were euthanized with carbon dioxide, and cell suspensions from pancreas and lung isolated. Pancreatic acini were prepared by collagenase and mechanical dissociation (Bruzzone et al., (1985) Biochem. J. 226:621-624). A total lung cell suspension was prepared by first flushing contaminating blood by repeated injection of lung with Krebs Henseleit buffer (KHB). Tissue was then extensively minced and incubated for 30 minutes at 37° C. in 10 ml of KHB containing 1,000 units of collagenase (Worthington Biochemical, PA) 2,000 units of DNase, and 0.5 units of thermolysin (Sigma Chemical Co., St. Louis, Mo.). The resulting cell suspension was sedimented once through KHB containing 5% BSA and subsequently washed once in KHB, pH 7.4 containing 32 mM bicarbonate, 10 mM Hepes, and 0.5% BSA. Brain, kidney, and heart were removed and sonicated in 0.5 mL and 0.3M sucrose. A similar approach was used for duodenum and ileum except that mucosal scrapings were used for sonication.
# Since the pancreas and the lung are the two primary organs affected in cystic fibrosis, AA and DHA levels in cell preparations of these organs and in wild-type and CFTR−/− mice were quantitated by GC/MS analysis. Lipids were extracted from cell suspensions, tissue homogenates, and blood plasma with 6 volumes of chloroform-methanol (2:1, v/v). The resulting emulsions were centrifuged at 600 g for 3 min and the lower phase containing the lipids was collected. This procedure was repeated twice and the lower phases from the two extractions combined. Aliquots of 30 μL of heptadecanoic acid (17:0) (1 mg/ml) were added to the extracts and used as an internal standard.
# CFTR−/− mice [2] = test: Fatty acid levels (GC/MS) in pancreas and lung cells of CFTR−/− mice fed n-3 fatty acids; conditions: for DHA level in pancreas: CFTR-/- mice, mean ± S.D.; for DHA level in pancreas / Change in phospholipid/membrane-bound AA (in words) / Change in phospholipid/membrane-bound DHA (in words): 40 mg/day for one week (fish oil: dose equivalent to 40 mg DHA, 60 mg EPA, 15 mg LNA); for Change in phospholipid/membrane-bound AA (in words) / Change in phospholipid/membrane-bound DHA (in words): vs Peptamen alone
# Procedure: as §1
# Cystic fibrosis (UNC strain) and wild type mice (12-20 grams body weight) were fed with a complete liquid enteral formulation (Peptamen™, Nestle Clinical Nutrition, Inc.) supplemented with different quantities of the DHA-containing formulation Neuromins (Nature's Way Products Inc., Springville, Utah). DHA content in the Neuromins formulation was 100 mg per 500 mg of formulation. Mice were fed once a day at about 11 a.m., seven days a week with 20 ml of Peptamen™ supplemented with the various amounts of either Neuramins, free DHA (Sigma Chemical Co., MO) or DHA-ethyl ester (Nu-Check-Prep, Inc. MN) ranging from 0.5 mg/day of DHA to 40 mg/day of DHA.
# Lung and acinar cells were isolated from a CF mouse fed with DHA formula (mouse-1, 40 mg/day DHA). The pellets (0.5 mL for pancreas cell homogenate and 0.6 mL for lung cell homogenate) were extracted with 3 mL of chloroform-methanol 2:1 (v/v). The resulting emulsion was vortexed, centrifuged at 800 g for 3 min., and the lower phase aspirated. The residual upper phase was partitioned again with 3 mL of chloroform-methanol 2:1 (v/v), the lower phase aspirated and both lower phases combined. Fractions were evaporated to dryness, processed for fatty acid methyl esters (FAME) and were analyzed by GC-MS analysis. Aliquots of 10 μL of 17:0 methyl ester solution in hexane [1 μg/μL] were added to the samples after methylation.
# (§2) Lung and acinar cells were isolated from a CF and a wild-type (WT) mouse fed with DHA formula. The pellets (0.5 mL for pancreas cell homogenate and 0.6 mL for lung cell homogenate) were extracted with 3 mL of chloroform-methanol 2:1 (v/v). The resulting emulsion was vortexed, centrifuged at 800 g for 3 min., and the lower phase aspirated. The residual upper phase was partitioned again with 3 mL of chloroform-methanol 2:1 (v/v), the lower phase aspirated and both lower phases combined. Fractions were evaporated to dryness, processed for FAME and analyzed by GC-MS. Aliquots of 20 μL of 17:0 in chloroform-methanol 2:1 (v/v) were added to the samples before methylation.
# as §2, with “from” for “from a”, “mice” for “and a wild-type (WT) mouse”, “different doses of DHA, i.e., 0.5 mg/day, 2.0 mg/day, 10 mg/day or 40 mg/day DHA.” for “DHA formula.”, “pellets” for “pellets (0.5 mL for pancreas cell homogenate and 0.6 mL for lung cell homogenate)”, “30” for “20”
# CFTR−/− mice were prepared as described in Example 1. Both CFTR−/− mice and wild type mice were euthanized with carbon dioxide, and cell suspensions from pancreas and lung isolated.
# [3] = WT mouse fed Peptamen supplemented with DHA
# [4] = CF mice, 40 mg/day DHA (dose series, Table 5)
# [5] = CF mouse-1, 40 mg/day DHA, day 30 to day 37
# [6] = CF mouse-2, 40 mg/day DHA, day 24 to day 47
# [7] = CFTR (-/-) mice, 40 mg DPA per day for 7 days
# [8] = wild-type mice, 40 mg DPA per day for 7 days
# [9] = wild-type mice, listed as 18:3n-3
# [10] = CFTR−/− mice, listed as 18:3n-3
compound,measurement,setting,value
"CC/C=C\C/C=C\C/C=C\C/C=C\C/C=C\C/C=C\CCC(=O)O [DHA, docosahexaenoic acid]",AA level in pancreas,CFTR−/− mice [1],4.9 ± 1.8 nmol/mg
same,20:4n-6 in lung,wild-type mice; [3],28 nmoles per total extract
same,20:4n-6 in pancreas,wild-type mice; [3],82 nmoles per total extract
same,22:4n-6 in lung,wild-type mice; [3],2 nmoles per total extract
same,22:4n-6 in pancreas,wild-type mice; [3],1.6 nmoles per total extract
same,22:6n-3 in lung,wild-type mice; [3],227 nmoles per total extract
same,22:6n-3 in pancreas,wild-type mice; [3],200 nmoles per total extract
same,20:4n-6 in pancreas,"CFTR−/− mice [2]; CF mice, 0.5 mg/day DHA",315 nmoles per total extract
same,22:4n-6 in pancreas,"CFTR−/− mice [2]; CF mice, 0.5 mg/day DHA",8.3 nmoles per total extract
same,22:6n-3 in pancreas,"CFTR−/− mice [2]; CF mice, 0.5 mg/day DHA",39 nmoles per total extract
same,20:4n-6 in pancreas,"CFTR−/− mice [2]; CF mice, 2 mg/day DHA",233 nmoles per total extract
same,22:4n-6 in pancreas,"CFTR−/− mice [2]; CF mice, 2 mg/day DHA",7.2 nmoles per total extract
same,22:6n-3 in pancreas,"CFTR−/− mice [2]; CF mice, 2 mg/day DHA",43 nmoles per total extract
same,20:4n-6 in pancreas,"CFTR−/− mice [2]; CF mice, 10 mg/day DHA",177 nmoles per total extract
same,22:4n-6 in pancreas,"CFTR−/− mice [2]; CF mice, 10 mg/day DHA",3.7 nmoles per total extract
same,22:6n-3 in pancreas,"CFTR−/− mice [2]; CF mice, 10 mg/day DHA",67 nmoles per total extract
same,20:4n-6 in pancreas,CFTR−/− mice [2]; [4],67 nmoles per total extract
same,22:4n-6 in pancreas,CFTR−/− mice [2]; [4],0.4 nmoles per total extract
same,22:6n-3 in pancreas,CFTR−/− mice [2]; [4],148 nmoles per total extract
same,20:4n-6 in lung,CFTR−/− mice [2]; [5],75 nmoles per total extract
same,20:4n-6 in pancreas,CFTR−/− mice [2]; [5],144^1 nmoles per total extract
same,22:4n-6 in lung,CFTR−/− mice [2]; [5],12 nmoles per total extract
same,22:4n-6 in pancreas,CFTR−/− mice [2]; [5],1.5 nmoles per total extract
same,22:6n-3 in lung,CFTR−/− mice [2]; [5],167 nmoles per total extract
same,22:6n-3 in pancreas,CFTR−/− mice [2]; [5],167 nmoles per total extract
same,20:4n-6 in lung,CFTR−/− mice [2]; [6],60 nmoles per total extract
same,20:4n-6 in pancreas,CFTR−/− mice [2]; [6],67^1 nmoles per total extract and 67 nmoles per total extract
same,22:4n-6 in lung,CFTR−/− mice [2]; [6],4.1 nmoles per total extract
same,22:4n-6 in pancreas,CFTR−/− mice [2]; [6],0.4 nmoles per total extract
same,22:6n-3 in lung,CFTR−/− mice [2]; [6],222 nmoles per total extract
same,22:6n-3 in pancreas,CFTR−/− mice [2]; [6],148 nmoles per total extract
same,DHA level in pancreas,CFTR−/− mice [2],7.9 ± 1.5 nmol/mg
same,Increase of DHA levels in pancreas above wild-type levels,"CFTR−/− mice [2]; CFTR−/− mice, 40 mg DHA/day",3 fold
"CC/C=C\C/C=C\C/C=C\C/C=C\C/C=C\CCCCCC(=O)O [DPA, docosapentaenoic acid]",20:5n-3 in pancreas,CFTR−/− mice [1]; [7],14.6 ± 1.1 (0.1) nmoles of fatty acid per mg of protein
same,22:6n-3 in pancreas,CFTR−/− mice [1]; [7],2.0 ± 0.4(1.5) nmoles of fatty acid per mg of protein
same,AA level in pancreas,CFTR−/− mice [1],5.1 ± 0.6 nmol/mg
same,20:4n-6 in lung,wild-type mice; [8],7.8 ± 0.9 (17.5) nmoles of fatty acid per mg of protein
same,20:4n-6 in pancreas,wild-type mice; [8],6.8 ± 0.6 (13.3) nmoles of fatty acid per mg of protein
same,20:5n-3 in lung,wild-type mice; [8],8.6 ± 0.8 (0.07) nmoles of fatty acid per mg of protein
same,20:5n-3 in pancreas,wild-type mice; [8],7.5 ± 0.8 (0.07) nmoles of fatty acid per mg of protein
same,22:6n-3 in lung,wild-type mice; [8],7.5 ± 0.8 (4.0) nmoles of fatty acid per mg of protein
same,22:6n-3 in pancreas,wild-type mice; [8],2.5 ± 0.4 (1.5) nmoles of fatty acid per mg of protein
same,20:4n-6 in lung,CFTR−/− mice [2]; [7],5.8 ± 0.9 (17.5) nmoles of fatty acid per mg of protein
same,20:4n-6 in pancreas,CFTR−/− mice [2]; [7],5.1 ± 0.6^1 (13.3) nmoles of fatty acid per mg of protein
same,20:5n-3 in lung,CFTR−/− mice [2]; [7],15.6 ± 1.1 (0.1) nmoles of fatty acid per mg of protein
same,22:6n-3 in lung,CFTR−/− mice [2]; [7],5.5 ± 0.8(4.0) nmoles of fatty acid per mg of protein
same,DHA level in pancreas,CFTR−/− mice [2],3.7 ± 0.4 nmol/mg
"CC/C=C\C/C=C\C/C=C\CCCCCCCC(=O)O [LNA, α-linolenic acid, reference compound]",AA level in pancreas,CFTR−/− mice [1],5.5 ± 0.8 nmol/mg
same,Change in phospholipid/membrane-bound AA (in words),wild-type mice; wild-type mice,decrease in membrane-bound AA
same,Change in phospholipid/membrane-bound DHA (in words),wild-type mice; wild-type mice,increase in membrane-bound DHA
same,Change in phospholipid/membrane-bound AA (in words),wild-type mice; [9],decrease in phospholipid-bound AA
same,Change in phospholipid/membrane-bound DHA (in words),wild-type mice; [9],increase in phospholipid-bound DHA
same,DHA level in pancreas,CFTR−/− mice [2],0.7 ± 0.07 nmol/mg
same,Change in phospholipid/membrane-bound AA (in words),CFTR−/− mice [2]; CFTR−/− mice,significant decrease; also recorded: four-fold decrease
same,Change in phospholipid/membrane-bound DHA (in words),CFTR−/− mice [2]; CFTR−/− mice,further decrease; also recorded: two-fold decrease
same,Change in phospholipid/membrane-bound AA (in words),CFTR−/− mice [2]; [10],significant decrease
same,Change in phospholipid/membrane-bound DHA (in words),CFTR−/− mice [2]; [10],further decrease
